# The source made the active and inactive calls. No cut-off for these calls is given here.
# Legend:
# [1] = Induction of apoptosis in human KYSE-150 cells assessed as late apoptotic cells at 333.3 nM incubated for 72 hrs by Annexin V-PE/7-AAD staining based flow cytometry (reference value: 5.98 %); format: functional
# [2] = Induction of apoptosis in human KYSE-150 cells assessed as early apoptotic cells at 333.3 nM incubated for 72 hrs by Annexin V-PE/7-AAD staining based flow cytometry (reference value: 5.27 %); format: functional
# [3] = Induction of apoptosis in human KYSE-150 cells assessed as late apoptotic cells at 111.1 nM incubated for 72 hrs by Annexin V-PE/7-AAD staining based flow cytometry (reference value: 5.98 %); format: functional
# [4] = Induction of apoptosis in human KYSE-150 cells assessed as early apoptotic cells at 1000 nM incubated for 72 hrs by Annexin V-PE/7-AAD staining based flow cytometry (reference value: 5.27 %); format: functional
# [5] = Induction of apoptosis in human KYSE-150 cells assessed as late apoptotic cells at 1000 nM incubated for 72 hrs by Annexin V-PE/7-AAD staining based flow cytometry (reference value: 5.98 %); format: functional
# [6] = target: von Hippel-Lindau disease tumor suppressor/Lysine-specific demethylase 4B (Homo sapiens, UniProt P40337+O94953); test: PROTAC activity at VHL/KDM4B in human KYSE-150 cells assessed as induction of KDM4B degradation upto 1000 nM measured after 24 hrs by Western blot analysis relative to control; format: cell-based; details: KYSE-150 cell line
# [7] = target: T1, von Hippel-Lindau disease tumor suppressor/Lysine-specific demethylase 4A (Homo sapiens, UniProt O75164+P40337); test: PROTAC activity at VHL/KDM4A in human KYSE-150 cells assessed as induction of KDM4A degradation at 50 nM incubated for 24 hrs in presence of bortezomib by Western blot analysis; format: cell-based; details: KYSE-150 cell line
# [8] = Induction of apoptosis in human KYSE-150 cells assessed as viable cells at 37 nM incubated for 72 hrs by Annexin V-PE/7-AAD staining based flow cytometry (reference value: 84.47 %); format: functional; details: read-out: Activity
# [9] = target: T1, von Hippel-Lindau disease tumor suppressor/Lysine-specific demethylase 4A; test: PROTAC activity at VHL/KDM4A in human KYSE-150 cells assessed as induction of KDM4A degradation at 50 nM incubated for 24 hrs in presence of Ac-VHL-Me by Western blot analysis; format: cell-based; details: KYSE-150 cell line
# [10] = Induction of apoptosis in human KYSE-150 cells assessed as viable cells at 333.3 nM incubated for 72 hrs by Annexin V-PE/7-AAD staining based flow cytometry (reference value: 84.47 %); format: functional; details: read-out: Activity
# [11] = Induction of cell cycle arrest in human KYSE-150 cells assessed as accumulation of cells at G0/G1 phase at 37 nM incubated for 24 hrs by flow cytometry (reference value: 65.08 %); format: functional
# [12] = Induction of cell cycle arrest in human KYSE-150 cells assessed as accumulation of cells at S pahse at 12.3 nM incubated for 24 hrs by flow cytometry (reference value: 13.15 %); format: functional
# [13] = Induction of cell cycle arrest in human KYSE-150 cells assessed as accumulation of cells at G2/M phase at 333.3 nM incubated for 24 hrs by flow cytometry (reference value: 21.64 %); format: functional
# [14] = target: von Hippel-Lindau disease tumor suppressor/Lysine-specific demethylase 4C (Homo sapiens, UniProt Q9H3R0+P40337); test: PROTAC activity at VHL/KDM4C in human KYSE-150 cells assessed as induction of KDM4C degradation upto 1000 nM by Western blot analysis; format: cell-based; details: KYSE-150 cell line
# [15] = Induction of apoptosis in human KYSE-150 cells assessed as late apoptotic cells at 37 nM incubated for 72 hrs by Annexin V-PE/7-AAD staining based flow cytometry (reference value: 5.98 %); format: functional
# [16] = Induction of cell cycle arrest in human KYSE-150 cells assessed as accumulation of cells at G2/M phase at 12.3 nM incubated for 24 hrs by flow cytometry (reference value: 21.64 %); format: functional
# [17] = Induction of apoptosis in human KYSE-150 cells assessed as early apoptotic cells at 37 nM incubated for 72 hrs by Annexin V-PE/7-AAD staining based flow cytometry (reference value: 5.27 %); format: functional
# [18] = Induction of apoptosis in human KYSE-150 cells assessed as early apoptotic cells at 111.1 nM incubated for 72 hrs by Annexin V-PE/7-AAD staining based flow cytometry (reference value: 5.27 %); format: functional
# [19] = target: T1, von Hippel-Lindau disease tumor suppressor/Lysine-specific demethylase 4A; test: PROTAC activity at VHL/KDM4A in human KYSE-150 cells assessed as induction of KDM4A degradation upto 1000 nM measured after 24 hrs by Western blot analysis relative to control; format: cell-based; details: KYSE-150 cell line
# [20] = Induction of apoptosis in human KYSE-150 cells assessed as viable cells at 111.1 nM incubated for 72 hrs by Annexin V-PE/7-AAD staining based flow cytometry (reference value: 84.47 %); format: functional; details: read-out: Activity
# [21] = target: T1, von Hippel-Lindau disease tumor suppressor/Lysine-specific demethylase 4A; test: PROTAC activity at VHL/KDM4A in human KYSE-150 cells assessed as induction of KDM4A degradation upto 1000 nM by Western blot analysis; format: cell-based; details: KYSE-150 cell line
# [22] = Induction of apoptosis in human KYSE-150 cells assessed as necrotic cells at 37 nM incubated for 72 hrs by Annexin V-PE/7-AAD staining based flow cytometry (reference value: 4.28 %); format: functional
# [23] = Induction of apoptosis in human KYSE-150 cells assessed as viable cells at 12.3 nM incubated for 72 hrs by Annexin V-PE/7-AAD staining based flow cytometry (reference value: 84.47 %); format: functional; details: read-out: Activity
# [24] = Induction of cell cycle arrest in human KYSE-150 cells assessed as accumulation of cells at S pahse at 333.3 nM incubated for 24 hrs by flow cytometry (reference value: 13.15 %); format: functional
# [25] = target: T1, von Hippel-Lindau disease tumor suppressor/Lysine-specific demethylase 4A; test: PROTAC activity at VHL/KDM4A in human KYSE-150 cells assessed as increase in KDM4A ubiquitination at 50 nM incubated for 24 hrs by Western blot analysis; format: cell-based; details: KYSE-150 cell line
# T1 sequence (O75164 2-1064 limits assumed): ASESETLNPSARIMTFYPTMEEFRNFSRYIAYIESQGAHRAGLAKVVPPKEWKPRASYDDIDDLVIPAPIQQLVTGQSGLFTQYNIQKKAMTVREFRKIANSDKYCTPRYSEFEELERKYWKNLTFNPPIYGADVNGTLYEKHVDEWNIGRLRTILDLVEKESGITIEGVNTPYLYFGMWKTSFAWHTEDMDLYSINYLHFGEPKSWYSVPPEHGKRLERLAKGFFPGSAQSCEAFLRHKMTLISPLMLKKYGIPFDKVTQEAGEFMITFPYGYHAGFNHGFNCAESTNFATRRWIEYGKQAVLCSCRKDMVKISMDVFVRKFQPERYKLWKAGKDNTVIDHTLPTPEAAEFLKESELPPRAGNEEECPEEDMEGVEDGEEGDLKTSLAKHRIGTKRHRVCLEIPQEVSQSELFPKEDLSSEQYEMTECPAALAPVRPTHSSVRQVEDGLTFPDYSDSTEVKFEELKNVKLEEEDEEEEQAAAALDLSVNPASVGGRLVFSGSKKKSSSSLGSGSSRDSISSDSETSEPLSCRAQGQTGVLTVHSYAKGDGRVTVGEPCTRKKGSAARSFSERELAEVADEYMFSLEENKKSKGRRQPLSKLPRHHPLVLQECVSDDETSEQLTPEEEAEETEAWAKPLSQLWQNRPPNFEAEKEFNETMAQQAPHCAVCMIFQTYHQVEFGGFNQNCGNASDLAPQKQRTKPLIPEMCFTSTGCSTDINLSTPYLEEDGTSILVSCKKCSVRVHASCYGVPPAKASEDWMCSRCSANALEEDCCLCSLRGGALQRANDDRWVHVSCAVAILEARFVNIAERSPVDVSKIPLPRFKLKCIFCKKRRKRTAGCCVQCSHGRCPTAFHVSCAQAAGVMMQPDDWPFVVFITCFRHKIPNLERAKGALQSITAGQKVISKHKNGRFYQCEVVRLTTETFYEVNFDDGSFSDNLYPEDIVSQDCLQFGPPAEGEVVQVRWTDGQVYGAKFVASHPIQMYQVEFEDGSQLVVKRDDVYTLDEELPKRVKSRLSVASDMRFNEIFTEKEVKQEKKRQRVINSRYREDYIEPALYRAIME
# T1 sequence (P40337 whole entry partner): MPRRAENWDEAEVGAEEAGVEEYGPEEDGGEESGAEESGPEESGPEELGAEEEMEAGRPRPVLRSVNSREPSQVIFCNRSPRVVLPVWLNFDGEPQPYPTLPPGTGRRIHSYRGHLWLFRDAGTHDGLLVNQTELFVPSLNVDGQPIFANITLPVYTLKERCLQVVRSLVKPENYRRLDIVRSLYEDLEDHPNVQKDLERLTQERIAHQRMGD
# Chain of von Hippel-Lindau disease tumor suppressor/Lysine-specific demethylase 4B (O94953 whole entry, looked up): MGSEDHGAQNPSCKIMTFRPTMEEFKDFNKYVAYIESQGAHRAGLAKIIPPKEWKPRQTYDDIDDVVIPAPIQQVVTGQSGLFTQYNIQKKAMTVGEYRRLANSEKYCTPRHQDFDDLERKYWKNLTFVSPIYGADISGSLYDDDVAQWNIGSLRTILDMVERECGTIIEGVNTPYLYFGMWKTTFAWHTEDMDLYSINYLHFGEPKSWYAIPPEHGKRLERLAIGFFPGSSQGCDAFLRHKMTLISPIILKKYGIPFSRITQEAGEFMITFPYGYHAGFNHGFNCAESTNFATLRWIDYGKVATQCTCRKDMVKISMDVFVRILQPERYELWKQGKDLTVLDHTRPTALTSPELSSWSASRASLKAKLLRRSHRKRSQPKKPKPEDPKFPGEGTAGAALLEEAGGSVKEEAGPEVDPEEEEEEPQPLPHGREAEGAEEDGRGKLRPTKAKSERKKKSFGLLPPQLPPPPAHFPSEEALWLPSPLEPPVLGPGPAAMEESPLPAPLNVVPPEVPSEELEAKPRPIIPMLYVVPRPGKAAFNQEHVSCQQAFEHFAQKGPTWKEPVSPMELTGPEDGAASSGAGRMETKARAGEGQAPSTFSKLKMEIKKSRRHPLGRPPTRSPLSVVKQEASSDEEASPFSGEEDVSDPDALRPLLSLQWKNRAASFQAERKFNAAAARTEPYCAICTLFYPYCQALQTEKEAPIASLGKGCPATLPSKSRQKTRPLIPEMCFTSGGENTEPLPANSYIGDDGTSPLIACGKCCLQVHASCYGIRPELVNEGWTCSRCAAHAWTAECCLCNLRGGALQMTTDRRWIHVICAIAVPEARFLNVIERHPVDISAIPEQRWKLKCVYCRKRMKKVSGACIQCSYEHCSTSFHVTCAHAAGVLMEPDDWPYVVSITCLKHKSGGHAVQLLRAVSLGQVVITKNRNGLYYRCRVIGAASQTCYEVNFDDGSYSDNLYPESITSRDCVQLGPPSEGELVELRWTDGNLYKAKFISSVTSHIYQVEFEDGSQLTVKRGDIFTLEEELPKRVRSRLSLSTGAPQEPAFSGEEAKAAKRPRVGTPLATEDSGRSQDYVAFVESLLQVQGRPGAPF
# Chain of von Hippel-Lindau disease tumor suppressor/Lysine-specific demethylase 4B (P40337 whole entry, looked up): as the sequence (P40337 whole entry partner) above
# Chain of von Hippel-Lindau disease tumor suppressor/Lysine-specific demethylase 4C (P40337 whole entry, looked up): as the sequence (P40337 whole entry partner) above
# Chain of von Hippel-Lindau disease tumor suppressor/Lysine-specific demethylase 4C (Q9H3R0 whole entry, looked up): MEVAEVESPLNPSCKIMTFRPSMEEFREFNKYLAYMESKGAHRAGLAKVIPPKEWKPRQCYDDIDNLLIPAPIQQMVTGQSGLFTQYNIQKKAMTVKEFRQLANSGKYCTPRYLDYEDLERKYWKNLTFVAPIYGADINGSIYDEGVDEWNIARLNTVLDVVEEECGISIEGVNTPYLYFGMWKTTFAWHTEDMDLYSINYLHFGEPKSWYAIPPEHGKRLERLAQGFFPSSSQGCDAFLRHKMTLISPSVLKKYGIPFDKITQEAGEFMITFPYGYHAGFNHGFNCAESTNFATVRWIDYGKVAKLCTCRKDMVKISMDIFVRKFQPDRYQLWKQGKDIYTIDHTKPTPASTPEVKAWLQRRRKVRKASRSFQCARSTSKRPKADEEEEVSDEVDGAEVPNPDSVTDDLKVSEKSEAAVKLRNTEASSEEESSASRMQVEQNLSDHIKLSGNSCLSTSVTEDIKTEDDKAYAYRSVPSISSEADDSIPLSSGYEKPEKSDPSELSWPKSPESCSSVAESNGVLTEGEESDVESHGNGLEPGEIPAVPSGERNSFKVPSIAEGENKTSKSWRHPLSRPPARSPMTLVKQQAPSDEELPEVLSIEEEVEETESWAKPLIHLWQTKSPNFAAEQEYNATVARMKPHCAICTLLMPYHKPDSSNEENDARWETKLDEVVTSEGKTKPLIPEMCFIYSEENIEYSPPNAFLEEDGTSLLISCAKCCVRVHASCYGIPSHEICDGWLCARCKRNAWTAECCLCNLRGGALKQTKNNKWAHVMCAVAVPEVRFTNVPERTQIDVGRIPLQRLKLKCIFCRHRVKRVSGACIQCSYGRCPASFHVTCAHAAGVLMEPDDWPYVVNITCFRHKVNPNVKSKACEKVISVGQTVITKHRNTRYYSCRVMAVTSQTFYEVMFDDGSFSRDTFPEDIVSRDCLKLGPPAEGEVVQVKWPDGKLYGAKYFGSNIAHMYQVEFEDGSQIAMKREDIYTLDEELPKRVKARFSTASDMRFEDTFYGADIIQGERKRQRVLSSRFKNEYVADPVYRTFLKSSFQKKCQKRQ
compound,measurement,setting,value
Cc1ncsc1-c1ccc([C@H](C)NC(=O)[C@@H]2C[C@@H](O)CN2C(=O)[C@@H](NC(=O)CCCCCCCCCOc2ccc(N(C)c3ccc4c(c3)OCC[C@H]4CNc3cnccc3C(=O)O)cc2)C(C)(C)C)cc1,Activity,[1],48.79%
same,Activity,[2],26.6%
same,Activity,[3],54.12%
same,Activity,[4],29.18%
same,Activity,[5],47.86%
same,Emax,[6],73.1%
same,Activity,[7],inactive
same,viability at 0.037 µM,[8],30.6%
same,Activity,[9],inactive
same,viability at 0.3333 µM,[10],19.5%
same,Activity,[11],71.68%
same,Activity,[12],14.42%
same,Activity,[13],13.01%
same,Activity,[14],Time-dependent-effect
same,Activity,[15],43.51%
same,Activity,[16],16.31%
same,Activity,[17],18.22%
same,Activity,[18],22.13%
same,Emax,[19],83.3%
same,viability at 0.1111 µM,[20],18.2%
same,Activity,[21],Time-dependent-effect
same,Activity,[22],7.7%
same,viability at 0.0123 µM,[23],64.4%
same,Activity,[24],14.06%
same,Activity,[25],Active

# Source: ChEMBL document CHEMBL6115000, “Discovery of a first-in-class PROTAC degrader of histone lysine demethylase KDM4” (Eur J Med Chem, 2025)
